Earlier results on one compound are cited in patent publication US20260034192A1 (University of Saskatchewan, priority 2022, published 2026).

Structures are written as SMILES. Square brackets hold non-standard residues; d marks the D form. Peptide text beside a SMILES is read from it. dPhe(4-NH2) = Nc1ccc(C[C@@H](N)C(=O)O)cc1; dPhe(4-Cl) = N[C@H](Cc1ccc(Cl)cc1)C(=O)O; Phe(4-NH2) = Nc1ccc(C[C@H](N)C(=O)O)cc1; d2Nal = N[C@H](Cc1ccc2ccccc2c1)C(=O)O; Lys(iPr) = CC(C)NCCCC[C@H](N)C(=O)O; d3Pal = N[C@H](Cc1cccnc1)C(=O)O

The subject of the data set is dominant follicle. The settings on record: acyline-treated animals, multiple injections from just before ovulation; cited from earlier work.

With `CC(=O)Nc1ccc(C[C@H](NC(=O)[C@H](CO)NC(=O)[C@@H](Cc2cccnc2)NC(=O)[C@@H](Cc2ccc(Cl)cc2)NC(=O)[C@@H](Cc2ccc3ccccc3c2)NC(C)=O)C(=O)N[C@H](Cc2ccc(NC(C)=O)cc2)C(=O)N[C@@H](CC(C)C)C(=O)N[C@@H](CCCCNC(C)C)C(=O)N2CCC[C@H]2C(=O)N[C@H](C)C(N)=O)cc1` [acyline, N-acetyl-3-(2-naphthyl)-D-alanyl-4-chloro-D-phenylalanyl-3-(3-pyridyl)-D-alanyl-L-seryl-4-acetamido-L-phenylalanyl-4-acetamido-D-phenylalanyl-L-leucyl-N6-isopropyl-L-lysyl-L-prolyl-D-alaninamide] (Ac-[d2Nal][dPhe(4-Cl)][d3Pal]S[Phe(4-NH2)](Ac)[dPhe(4-NH2)](Ac)L[Lys(iPr)]P[dA]-NH2), the “Maximum diameter of dominant follicle” value is on record as 7.7 mm.
